Patent US20250388565A1, “ESTROGEN RECEPTOR ALPHA DEGRADERS AND METHODS OF USE THEREOF” (Relay Therapeutics, Inc., priority 2022, published 2025)

Target: T1, ERα protein (HiBiT-tagged) in ESR1_HiBiT KI MCF7 cells (Homo sapiens, UniProt P03372)
T1 sequence (P03372 1-595): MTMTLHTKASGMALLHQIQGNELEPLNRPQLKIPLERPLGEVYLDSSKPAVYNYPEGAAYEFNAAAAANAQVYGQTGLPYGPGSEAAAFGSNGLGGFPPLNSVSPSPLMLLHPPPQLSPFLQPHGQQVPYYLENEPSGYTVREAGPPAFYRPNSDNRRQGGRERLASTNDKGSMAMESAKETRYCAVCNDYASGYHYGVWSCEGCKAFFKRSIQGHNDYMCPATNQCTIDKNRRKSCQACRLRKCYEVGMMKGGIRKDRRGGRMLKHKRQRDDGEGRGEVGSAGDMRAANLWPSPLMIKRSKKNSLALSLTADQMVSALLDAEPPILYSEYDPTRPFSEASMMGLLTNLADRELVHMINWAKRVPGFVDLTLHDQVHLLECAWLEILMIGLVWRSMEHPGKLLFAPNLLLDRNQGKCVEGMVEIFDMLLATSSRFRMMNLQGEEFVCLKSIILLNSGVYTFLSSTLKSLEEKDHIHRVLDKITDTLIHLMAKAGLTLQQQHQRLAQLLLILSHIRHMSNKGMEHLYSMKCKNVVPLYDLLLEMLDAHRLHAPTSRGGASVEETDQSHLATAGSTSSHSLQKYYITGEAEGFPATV
Assay: Nano Glo HiBiT Lytic Degradation Assay
Assay type: cell-based
Details: 6 hours with compound, 14-point dose response 1:3, bell-shape curve fit, half-maximal effect of first Hill model, read-out: MCF7 ESR1 HiBiT - (DC50)
In short: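 HiBiT-tagged endogenous ERα remaining in MCF7 knock-in cells was quantified by lytic luminescence after a 6 h treatment. DC50 values derive from a bell-shaped curve, taken at the first Hill component's half-maximal effect.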

Cc1cc(N2CCC(CN3CCN(c4ccc5c(c4)CN([C@H]4CCC(=O)NC4=O)C5=O)CC3)CC2)ccc1[C@@H]1c2ccc(O)cc2CC[C@@H]1c1ccccc1 [Compound I-139, (S)-3-(5-(4-((1-(4-((1R,2S)-6-hydroxy-2-phenyl-1,2,3,4-tetrahydronaphthalen-1-yl)-3-methylphenyl)piperidin-4-yl)methyl)piperazin-1-yl)-1-oxoisoindolin-2-yl)piperidine-2,6-dione]
DC50: 0.76 nM

C[C@@H]1C[C@@H](c2ccccc2)[C@@H](c2ccc(N3CCC(CN4CCN(c5ccc6c(c5)CN([C@H]5CCC(=O)NC5=O)C6=O)CC4)CC3)cc2)c2ccc(O)cc21 (single isomer, unassigned) [Compound I-332]
DC50: ≥ 10000 nM

O=C1CC[C@H](N2Cc3cc(N4CCN(CC5CCN(c6ccc([C@H]7c8ccc(O)cc8CC[C@H]7c7cccc8c7CCCC8)cc6)CC5)CC4)ccc3C2=O)C(=O)N1 (single isomer, unassigned) [Compound I-61]
DC50: ≥ 10000 nM

[2H]c1c([2H])c([2H])c([C@H]2CC(F)(F)c3cc(O)ccc3[C@H]2c2ccc(N3CCC(CN4CCN(c5ccc6c(c5)CN([C@H]5CCC(=O)NC5=O)C6=O)CC4)CC3)cc2)c([2H])c1[2H] [Compound I-335, (S)-3-(5-(4-((1-(4-((1R,2S)-4,4-difluoro-6-hydroxy-2-(phenyl-d5)-1,2,3,4-tetrahydronaphthalen-1-yl)phenyl)piperidin-4-yl)methyl)piperazin-1-yl)-1-oxoisoindolin-2-yl)piperidine-2,6-dione]
DC50: 0.36 nM

Cc1ccc([C@@H]2OCc3cc(O)ccc3[C@@H]2c2ccc(N3CCC(CN4CCN(c5ccc6c(c5)CN([C@H]5CCC(=O)NC5=O)C6=O)CC4)CC3)cc2)cc1F (single isomer, unassigned) [Compound I-356]
DC50: 54 nM

CC(C)[C@H]1CC(F)(F)c2cc(O)ccc2[C@H]1c1ccc(N2CCC(CN3CCN(c4ccc5c(c4)CN([C@H]4CCC(=O)NC4=O)C5=O)CC3)CC2)cc1 [Compound I-156, (S)-3-(5-(4-((1-(4-((1R,2R)-4,4-difluoro-6-hydroxy-2-isopropyl-1,2,3,4-tetrahydronaphthalen-1-yl)phenyl)piperidin-4-yl)methyl)piperazin-1-yl)-1-oxoisoindolin-2-yl)piperidine-2,6-dione]
DC50: 0.4 nM

CC(C)C[C@H]1OCc2cc(O)ccc2[C@H]1c1ccc(N2CCC(CN3CCN(c4ccc5c(c4)CN([C@H]4CCC(=O)NC4=O)C5=O)CC3)CC2)cc1 (single isomer, unassigned) [Compound I-224]
DC50: 0.48 nM

O=C1CC[C@H](N2Cc3cc(N4CCN(CC5CCN(c6ccc([C@H]7c8ccc(O)cc8CO[C@H]7C7CC7)cc6)CC5)CC4)ccc3C2=O)C(=O)N1 (single isomer, unassigned) [Compound I-243]
DC50: 3 nM

O=C1CCC(c2ccc(N3CCC4(CCN(CC5CCN(c6ccc([C@@H]7c8ccc(O)cc8C(F)(F)C[C@@H]7c7ccccc7)cc6)CC5)C4)C3)cc2)C(=O)N1 (single isomer, unassigned) [Compound I-282, 3-(4-((R*)-7-((1-(4-((1R,2S)-4,4-difluoro-6-hydroxy-2-phenyl-1,2,3,4-tetrahydronaphthalen-1-yl)phenyl)piperidin-4-yl)methyl)-2,7-diazaspiro[4.4]nonan-2-yl)phenyl)piperidine-2,6-dione]
DC50: 24.5 nM

N#Cc1ccc2c(c1)CC[C@H](c1ccccc1)[C@@H]2c1ccc(N2CCC(CN3CCN(c4ccc5c(c4)CN([C@H]4CCC(=O)NC4=O)C5=O)CC3)CC2)cc1 [Compound I-49, (5R,6S)-5-(4-(4-((4-(2-((S)-2,6-dioxopiperidin-3-yl)-1-oxoisoindolin-5-yl)piperazin-1-yl)methyl)piperidin-1-yl)phenyl)-6-phenyl-5,6,7,8-tetrahydronaphthalene-2-carbonitrile]
DC50: ≥ 10000 nM

C[C@]1(N2Cc3cc(N4CCN(CC5CCN(c6ccc([C@@H]7c8ccc(O)cc8CC[C@@H]7c7ccccc7)cc6)CC5)CC4)ccc3C2=O)CCC(=O)NC1=O (single isomer, unassigned) [II-57]
DC50: ≥ 10000 nM

O=C1CC[C@H](N2Cc3cc(N4CCN(CC5CCN(c6ccc([C@@H]7c8ccc(O)cc8C(F)(F)C[C@@H]7C7CCCC7)cc6)CC5)CC4)ccc3C2=O)C(=O)N1 [Compound I-198, (S)-3-(5-(4-((1-(4-((1R,2R)-2-cyclopentyl-4,4-difluoro-6-hydroxy-1,2,3,4-tetrahydronaphthalen-1-yl)phenyl)piperidin-4-yl)methyl)piperazin-1-yl)-1-oxoisoindolin-2-yl)piperidine-2,6-dione]
DC50: 0.93 nM

O=C1CC[C@H](N2Cc3cc(N4CCN(CC5CCN(c6ccc([C@@H]7c8ccc(O)cc8C(F)(F)C[C@@H]7CC7CCCC7)cc6)CC5)CC4)ccc3C2=O)C(=O)N1 [Compound I-196, (3S)-3-[5-[4-[[1-[4-[(1R,2S)-2-(cyclopentylmethyl)-4,4-difluoro-6-hydroxy-tetralin-1-yl]phenyl]-4-piperidyl]methyl]piperazin-1-yl]-1-oxo-isoindolin-2-yl]piperidine-2,6-dione]
DC50: 2 nM

COc1cccc([C@H]2OCc3cc(O)ccc3[C@H]2c2ccc(N3CCC(CN4CCN(c5ccc6c(c5)CN([C@H]5CCC(=O)NC5=O)C6=O)CC4)CC3)cc2)c1 [Compound I-373, (S)-3-(5-(4-((1-(4-((3S,4R)-7-hydroxy-3-(3-methoxyphenyl)isochroman-4-yl)phenyl)piperidin-4-yl)methyl)piperazin-1-yl)-1-oxoisoindolin-2-yl)piperidine-2,6-dione]
DC50: 0.78 nM

O=C1CCC(N2Cc3cc(N4CCN(CC5CCN(c6ccc([C@H]7c8ccc(O)cc8CC[C@H]7C7CCCC7)cc6)CC5)CC4)ccc3C2=O)C(=O)N1 (single isomer, unassigned) [Compound I-53]
DC50: 0.92 nM

Cn1c(=O)n(C2CCC(=O)NC2=O)c2ccc(N3CCN(CC4CCN(c5ccc([C@@H]6c7ccc(O)cc7CC[C@@H]6c6ccccc6)cc5)CC4)CC3)cc21 (stereo partly drawn) [Compound I-190, 3-(5-(4-((1-(4-((1R,2S)-6-hydroxy-2-phenyl-1,2,3,4-tetrahydronaphthalen-1-yl)phenyl)piperidin-4-yl)methyl)piperazin-1-yl)-3-methyl-2-oxo-2,3-dihydro-1H-benzo[d]imidazol-1-yl)piperidine-2,6-dione]
DC50: 0.4 nM

O=C1CC[C@H](N2Cc3cc(N4CCN(CC5CCN(c6ccc([C@@H]7c8ccc(O)cc8CO[C@@H]7c7ccc8c(c7)CCC8)cc6)CC5)CC4)ccc3C2=O)C(=O)N1 [Compound I-365, (S)-3-(5-(4-((1-(4-((3S,4R)-3-(2,3-dihydro-1H-inden-5-yl)-7-hydroxyisochroman-4-yl)phenyl)piperidin-4-yl)methyl)piperazin-1-yl)-1-oxoisoindolin-2-yl)piperidine-2,6-dione]
DC50: 0.24 nM

O=C1CC[C@H](N2Cc3cc(N4C[C@H]5C[C@@H]4CN5CC4CCN(c5ccc([C@H]6c7ccc(O)cc7CC[C@H]6c6ccccc6)cc5)CC4)ccc3C2=O)C(=O)N1 (single isomer, unassigned) [II-6]
DC50: ≥ 10000 nM

Cn1ccc([C@@H]2CCc3cc(O)ccc3[C@@H]2c2ccc(N3CCC(CN4CCN(c5ccc6c(c5)CN([C@H]5CCC(=O)NC5=O)C6=O)CC4)CC3)cc2)n1 (single isomer, unassigned) [Compound I-29]
DC50: 0.14 nM

Cc1cc(F)c([C@H]2CC(F)(F)c3cc(O)ccc3[C@H]2c2ccc(N3CCC(CN4CCN(c5ccc6c(c5)CN([C@H]5CCC(=O)NC5=O)C6=O)CC4)CC3)cc2)cc1F (single isomer, unassigned) [Compound I-324]
DC50: 0.56 nM
